BindingDB's records for doi:10.1021/jm020562o (University of Vermont, 2003)

Assay: Binding affinity was determined against Opioid receptor delta 1 from guinea pig brain membranes

## COCC[C@H]1CC2CN3CCc4c([nH]c5ccccc45)[C@](C(=O)OC)(C2)C13 [18-methoxycoronaridine]
  Ki: 3.5 µM
